Experimental data as given in patent US20020049160A1, “New strategy for drug design” (priority 2000, published 2002).

Key:
[1] = target: T1, NMDA receptors (Rattus norvegicus, UniProt P35439); experiment: NMDA-evoked currents in isolated dorsal horn neurons of control rats, whole-cell patch clamp, with or without PKCM in the pipette; assay type: cell-based
T1 construct: Single dorsal horn neurons were isolated from the lamina I and II of the lumbar spinal cord; endogenous in cells; host or cells: acutely dissociated rat lumbar dorsal horn neurons (lamina I/II): control Long-Evans rats or CFA-inflamed Sprague-Dawley rats
Method: Single dorsal horn neurons were isolated from the lamina I and II of the lumbar spinal cord of 13-20 days old Long-Evans rats. After the rat had been anaesthetized with pentobarbitone (0.1 mg/g), the lumbar region of the spinal cord was rapidly removed from the animal and put into an ice-cold, oxygenated dissecting solution. […] Prior to an experiment, neurons from a slice were dissociated by triturating the tissue with a series of fire-polished Pasteur pipettes.
Electrical recordings: NMDA-receptor mediated currents in normal dorsal horn neurons were examined using the whole-cell patch clamp recording technique at room temperature (20-23° C.). The pipette solution contained (in mM): 120 cesium methanesulphonate, 20 CsCl, 1 CaCl2, 5 BAPTA, 1 MgCl2, 10 HEPES, 2.5 Na2ATP, adjusted to pH 7.2 with CsOH. The external solution contained (mM): NaCl,140; KCl, 4; CaCI2, 2.5; MgCl2, 0.02; HEPES,10; Glucose,10; Sucrose,10; adjusted to pH 7.4 with KOH. […] The resistances of patch pipettes were <20 Mohms. Current recordings were made with an Axopatch-200A patch clamp amplifier (Axon Instruments, Foster City, Calif.). The recorded whole-cell currents were filtered at 2 kHz and sampled at 200 μs per point. The average data are expressed as mean±SEM. Statistical significance of the data was evaluated using Student's t-test or one-way ANOVA. A level of P<0.05 was considered statistically significant.

[2] = tested on: GABAA receptors; conditions: cited from earlier work
[3] = target: GABAB receptors (Homo sapiens, UniProt Q9UBS5); conditions: cited from earlier work
[4] = rodents; cited from earlier work
[5] = rabbits; cited from earlier work
[6] = tested on: system L-amino acid transporter; conditions: cited from earlier work
[7] = tested on: formalin-induced nociceptive responses; conditions: formalin test, cited from earlier work
[8] = tested on: N and P/Q subtypes of Ca^2+ channel; conditions: cited from earlier work

Chain of GABAB receptors (Q9UBS5 15-961 limits assumed): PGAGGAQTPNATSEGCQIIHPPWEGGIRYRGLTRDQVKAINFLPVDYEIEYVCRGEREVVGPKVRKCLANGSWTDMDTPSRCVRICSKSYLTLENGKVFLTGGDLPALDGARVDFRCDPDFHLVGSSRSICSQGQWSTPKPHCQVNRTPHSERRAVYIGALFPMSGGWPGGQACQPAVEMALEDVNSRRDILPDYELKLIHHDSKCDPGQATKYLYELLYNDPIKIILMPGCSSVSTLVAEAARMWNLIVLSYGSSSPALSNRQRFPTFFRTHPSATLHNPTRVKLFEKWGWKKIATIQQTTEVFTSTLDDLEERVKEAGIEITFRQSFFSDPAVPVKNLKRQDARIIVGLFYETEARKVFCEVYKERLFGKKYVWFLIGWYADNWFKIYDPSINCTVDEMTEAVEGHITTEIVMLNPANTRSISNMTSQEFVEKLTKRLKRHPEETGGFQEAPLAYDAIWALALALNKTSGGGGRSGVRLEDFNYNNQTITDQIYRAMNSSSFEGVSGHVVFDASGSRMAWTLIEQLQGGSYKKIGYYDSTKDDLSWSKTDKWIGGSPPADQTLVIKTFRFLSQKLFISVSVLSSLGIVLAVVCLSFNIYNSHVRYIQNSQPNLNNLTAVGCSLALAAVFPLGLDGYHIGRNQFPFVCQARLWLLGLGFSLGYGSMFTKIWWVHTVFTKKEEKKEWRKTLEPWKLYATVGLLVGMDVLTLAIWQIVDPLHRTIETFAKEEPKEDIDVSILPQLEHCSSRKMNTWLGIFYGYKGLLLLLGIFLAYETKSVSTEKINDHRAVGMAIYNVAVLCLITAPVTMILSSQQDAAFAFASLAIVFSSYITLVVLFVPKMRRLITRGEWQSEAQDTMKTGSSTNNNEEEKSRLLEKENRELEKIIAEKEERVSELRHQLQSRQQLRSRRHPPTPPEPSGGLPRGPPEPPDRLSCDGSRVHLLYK
Chain of GABAB receptors (O75899 42-941 partner): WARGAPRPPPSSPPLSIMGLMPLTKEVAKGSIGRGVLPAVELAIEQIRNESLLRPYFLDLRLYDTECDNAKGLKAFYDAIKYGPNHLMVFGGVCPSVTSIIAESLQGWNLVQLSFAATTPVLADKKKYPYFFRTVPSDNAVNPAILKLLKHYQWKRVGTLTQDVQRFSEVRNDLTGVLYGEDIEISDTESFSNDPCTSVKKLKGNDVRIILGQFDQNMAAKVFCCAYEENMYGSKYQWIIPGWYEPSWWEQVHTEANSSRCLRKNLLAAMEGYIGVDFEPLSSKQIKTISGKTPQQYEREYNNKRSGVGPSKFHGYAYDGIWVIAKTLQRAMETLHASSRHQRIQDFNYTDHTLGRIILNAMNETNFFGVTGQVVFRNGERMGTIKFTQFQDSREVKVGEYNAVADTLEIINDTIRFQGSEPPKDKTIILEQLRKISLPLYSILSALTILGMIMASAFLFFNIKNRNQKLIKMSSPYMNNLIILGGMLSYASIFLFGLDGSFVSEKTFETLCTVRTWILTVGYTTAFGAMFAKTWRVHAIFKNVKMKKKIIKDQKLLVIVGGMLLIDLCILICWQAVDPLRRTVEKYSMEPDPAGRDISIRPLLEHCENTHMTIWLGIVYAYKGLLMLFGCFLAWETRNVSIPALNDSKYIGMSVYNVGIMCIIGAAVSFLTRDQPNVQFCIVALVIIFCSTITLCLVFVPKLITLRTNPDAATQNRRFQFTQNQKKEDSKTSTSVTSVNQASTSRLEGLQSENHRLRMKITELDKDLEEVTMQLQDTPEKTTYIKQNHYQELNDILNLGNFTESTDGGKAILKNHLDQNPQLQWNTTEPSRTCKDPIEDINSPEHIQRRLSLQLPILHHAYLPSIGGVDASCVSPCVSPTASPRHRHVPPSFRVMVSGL

With `NC(CCCP(=O)(O)O)C(=O)O` (stereo not shown) [APV, 2-amino-5-phosphonovaleric acid] as the molecule, how does the “block of NMDA-evoked inward current” value ([1]; 20 μM APV, control dorsal horn neuron) read?
Its value is “blocked”.

With `COc1ccc2c(c[n+](C)c3c4cc5c(cc4ccc23)OCO5)c1OC` [chelerythrine] as the molecule, how does the “block of the action of PKCM on NMDA-activated currents” value ([1]; 6.6 μM chelerythrine in external solution) read?
Its value is “completely blocked”.

With `NCC1(CC(=O)O)CCCCC1` [GBP, 1-(aminomethyl)cyclohexaneacetic acid] as the molecule, how does the “interaction with GABAA receptors” value [2] read?
Its value is “does not interact”.

And the “interaction with GABAB receptors” value [3]?
Its value is “does not interact”.

And the fetotoxicity [4]?
Its fetotoxicity is “fetotoxic”.

And the fetal loss [5]?
The fetal loss was “postimplantation fetal loss”.

What about the “interaction with system L-amino acid transporter” value [6] of the same molecule?
Its value is “interact”.

What about the “nociceptive behaviors in the transient phase” value ([7]; first phase) of the same molecule?
Its value is “no effect”.

And the “sustained phase of formalin-induced nociceptive responses” value ([7]; second phase)?
Its value is “potently blocking”.

What about the “inhibition of Ca^2+ channel activity” value [8] of the same molecule?
Its value is < 20%.
